# Data: ChEMBL document CHEMBL3745610, “A dimeric urea of the bisabolene sesquiterpene from the Okinawan marine sponge Axinyssa sp. inhibits protein tyrosine phosphatase 1B activity in Huh-7 human hepatoma cells” (Bioorg Med Chem Lett, 2016)
# Activity calls are given as the source filed them. The rule behind the calls is not given here.
# What was measured:
# [1] = Cytotoxicity against human EJ1 cells assessed as cell viability after 72 hrs by WST-1 assay; format: cell-based; conditions: EJ1, 72 h
# [2] = Cytotoxicity against human HuH7 cells assessed as cell viability after 72 hrs by WST-1 assay; format: cell-based; conditions: Huh-7, 72 h
# [3] = target: T1, Tyrosine-protein phosphatase non-receptor type 1 (Homo sapiens) (UniProt P18031); test: Inhibition of recombinant human PTP1B using pNPP as substrate at 36 uM incubated for 10 mins prior to substrate addition measured after 30 mins by microplate reader analysis
# T1 sequence (whole entry): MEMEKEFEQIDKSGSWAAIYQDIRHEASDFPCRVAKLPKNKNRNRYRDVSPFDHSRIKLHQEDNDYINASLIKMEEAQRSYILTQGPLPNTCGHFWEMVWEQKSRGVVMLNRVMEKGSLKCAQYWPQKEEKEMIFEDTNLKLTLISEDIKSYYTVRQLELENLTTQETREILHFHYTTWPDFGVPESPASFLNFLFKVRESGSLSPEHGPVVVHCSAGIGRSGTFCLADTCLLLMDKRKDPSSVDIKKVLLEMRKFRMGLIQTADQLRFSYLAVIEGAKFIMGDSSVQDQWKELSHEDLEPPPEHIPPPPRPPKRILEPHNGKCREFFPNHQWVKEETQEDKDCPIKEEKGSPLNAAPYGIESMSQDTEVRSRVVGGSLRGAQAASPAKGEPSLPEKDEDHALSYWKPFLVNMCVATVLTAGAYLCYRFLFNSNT
# [4] = target: T1, Tyrosine-protein phosphatase non-receptor type 1 (Homo sapiens); test: Inhibition of recombinant human PTP1B using pNPP as substrate at 24 uM incubated for 10 mins prior to substrate addition measured after 30 mins by microplate reader analysis
# [5] = target: T2, Tyrosine-protein phosphatase non-receptor type 1 (Homo sapiens, UniProt P18031); test: Inhibition of recombinant human PTP1B using pNPP as substrate incubated for 10 mins prior to substrate addition measured after 30 mins by microplate reader analysis
# T2 sequence (P18031 whole entry): T1 sequence (whole entry)
# [6] = target: T1, Tyrosine-protein phosphatase non-receptor type 1 (Homo sapiens); test: Inhibition of PTP1B in human Huh7 cells assessed as increase in insulin-stimulated phosphorylated Akt level preincubated for 2 hrs followed by insulin stimulation for 5 mins by Western blot analysis; format: cell-based; conditions: Huh-7
# [7] = target: T1, Tyrosine-protein phosphatase non-receptor type 1 (Homo sapiens); test: Inhibition of PTP1B in human Huh7 cells assessed as increase in phosphorylated Akt level at 50 uM after 2 hrs by Western blot analysis; format: cell-based; conditions: Huh-7
# [8] = target: T1, Tyrosine-protein phosphatase non-receptor type 1 (Homo sapiens); test: Inhibition of PTP1B in human Huh7 cells assessed as increase in phosphorylated Akt level at 20 uM after 2 hrs by Western blot analysis; format: cell-based; conditions: Huh-7
# [9] = target: T1, Tyrosine-protein phosphatase non-receptor type 1 (Homo sapiens); test: Inhibition of PTP1B in human Huh7 cells assessed as increase in insulin-stimulated phosphorylated Akt level at 20 uM preincubated for 2 hrs followed by insulin stimulation for 5 mins by Western blot analysis; format: cell-based; conditions: Huh-7
# [10] = target: T1, Tyrosine-protein phosphatase non-receptor type 1 (Homo sapiens); test: Inhibition of PTP1B in human Huh7 cells assessed as increase in insulin-stimulated phosphorylated Akt level at 50 uM preincubated for 2 hrs followed by insulin stimulation for 5 mins by Western blot analysis; format: cell-based; conditions: Huh-7
compound,measurement,setting,value
CC(C)[C@@H]1CC[C@](C)(N=C=S)[C@@H]2CC[C@@](C)(O)C=C12 [AXINISOTHIOCYANATE J],IC50,[1],> 50 µM
same,IC50,[2],> 50 µM
same,inhibition,[3],50%
C=C(C)[C@@H](C)/C=C/[C@@H](C)[C@H]1CC[C@@H]2[C@]1(C)CC[C@H]1[C@]23C=C[C@]2(C[C@@H](O)CC[C@]12C)OO3,IC50,[1],21 µM
same,inhibition,[4],50%
same,IC50,[2],26 µM
CC(C)=CCC[C@](C)(NC(=O)N[C@@](C)(CCC=C(C)C)[C@H]1CC=C(C)CC1)[C@H]1CC=C(C)CC1,IC50,[1],> 50 µM
same,IC50,[5],1.9 µM
same,inhibition,[6],Dose-dependent effect
same,IC50,[2],> 50 µM
same,inhibition,[7],inactive
same,inhibition,[8],inactive
CC1=C[C@H]2[C@@H](CC1)[C@@](C)(N=C=S)CC[C@H]2C(C)C,IC50,[1],> 50 µM
same,IC50,[5],17 µM
same,IC50,[2],> 50 µM
CC(C)=CCC[C@](C)(N)[C@H]1CC=C(C)CC1,IC50,[1],> 50 µM
same,inhibition,[9],inactive
same,IC50,[5],> 45 µM
same,IC50,[2],> 50 µM
same,inhibition,[7],inactive
same,inhibition,[8],inactive
same,inhibition,[10],inactive
COc1cccc2c1C(=O)c1c(O)c3c(c(O)c1C2=O)C[C@@](O)(C(=O)CO)C[C@@H]3O[C@H]1C[C@H](N)[C@H](O)[C@H](C)O1 [DOXORUBICIN],IC50,[1],0.023 µM
